Legend:
[1] = system: HDAC5 nuclear export; test: PE-induced HDAC5 nuclear export in neonatal rat ventricular cardiomyocytes (NRVMs); type: cell-based
Procedure: (§1) A, B, Cos7 cells were co-transfected with expression vectors encoding GFP-tagged HDAC5 (GFP-HDAC5) and constitutively active protein kinases as indicated, and then exposed to phorbol-12-myristate-13-acetate (PMA, […]) for 3 hours. […] A-F, The cells were fixed and the subcellular localization of GFP-HDAC5 was visualized by fluorescence microscopy.
The cells were fixed and GFP-HDAC5 localization was analyzed by fluorescence microscopy. α-actinin was detected by immunofluorescence using an antibody against α-actinin and a fluorescein-conjugated secondary antibody. The nuclei were stained with DAPI.
The cells were fixed and GFP-HDAC5 localization was analyzed by fluorescence microscopy. α-actinin was detected by immunofluorescence using an antibody against α-actinin and a fluorescein-conjugated secondary antibody. The nuclei were stained with DAPI. B, PKA expression in cell lysates were determined by Western blot using PKA antibody.
The cells were fixed and endogenous HDAC5 localization was analyzed by fluorescence microscopy. HDAC5 and α-actinin was detected by immunocytochemistry with antibody against HDAC5 and α-actinin.
The cells were fixed and GFP-HDAC5 subcellular localization was analyzed by fluorescence microscopy and stained with an α-actinin antibody and DAPI.
Cos7 cells were grown in Dulbecco's Modified Eagle's Medium (DMEM) supplemented with fetal bovine serum (10%), 1-glutamine and penicillin/streptomycin. Primary cultures of neonatal rat cardiac ventricular myocytes (NRVMs) from 1- to 2-day-old Sprague-Dawley rats (Charles River Laboratories) were prepared. In brief, NRVMs were dispersed from the ventricles by digestion with collagenase type II (Worthington). Cells were cultured in Dulbecco's modified Eagle's medium (DMEM) supplemented with 1,000 mg/L D-glucose, L-glutamine, and 110 mg/L sodium pyruvate (GIBCO), fetal bovine serum (10%), and penicillin/streptomycin at 37° C. in a 5% CO2 humidified atmosphere for 2-3 days. For inducer or inhibitor studies, cells were pretreated with various inducers or inhibitors for 30 min in serum-free medium. Primary cultures of adult rat cardiomyocytes were prepared from 200-250g male Sprague-Dawley rats. Briefly, rats were anesthetized, hearts excised and placed in Krebs buffer and perfused and digested with endotoxin-free collagenase II (Worthington). This protocol typically yielded approximately 4×10^6 cells per heart, with ˜85% surviving, rod-shaped Ca2+-tolerant cells. Myocytes were allowed to attach to 20 μg/ml laminin coated plates in Modified Eagle Medium (MEM) containing 2.5% FBS, 25 mmol/L HEPES, 5 mmol/L taurine, 2 mmol/L carnitine, 2 mmol/L creatinine, 100 IU/ml penicillin, and 100 μg/ml streptomycin for 2 hrs before replacing with serum-free MEM containing 25 mmol/L HEPES, 5 mmol/L taurine, 2 mmol/L carnitine, 2 mmol/L creatinine, 100 IU/ml penicillin, and 100 μg/ml streptomycin.
Adenoviruses encoding Flag-tagged HDAC5 wild-type (WT), GFP-tagged HDAC5-WT, and YFP-tagged HDAC7-WT were generated as described previously (Ha C H, et al. (2008) Protein Kinase D-dependent Phosphorylation and Nuclear Export of Histone Deacetylase 5 Mediates Vascular Endothelial Growth Factor-induced Gene Expression and Angiogenesis. J Biol Chem 283(21):14590-14599; Ha C H et al. (2008) VEGF stimulates HDAC7 phosphorylation and cytoplasmic accumulation modulating matrix metalloproteinase expression and angiogenesis. Arterioscler Thromb Vasc Biol 28(10):1782-1788). Adenovirus expressing GFP-tagged HDAC5-S280A mutant, GFP-tagged HDAC5-S280D mutant and Flag-tagged HDAC5-S280A mutant were generated by using ViraPower Adenoviral Expression System (Invitrogen) according to the manufacturer's protocol. Adenovirus containing β-galactosidase (LacZ) or GFP was used as a control. […]

[2] = system: HDAC5 nuclear export; test: PMA-induced GFP-HDAC5 nuclear export in Cos7 cells (fluorescence microscopy); type: cell-based
Procedure: as §1
C, D, Cos7 cells were transfected with GFP-HDAC5-WT or GFP-HDAC5-S280D and then exposed to PMA for 3 hours. GFP-HDAC5-S280D but not GFP-HDAC5-WT was resistant to PMA-induced nuclear export. *, p<0.05 versus without PMA, n=4. E, F, Cos7 cells were transfected with Flag-HDAC5-WT or Flag-HDAC5-S280A mutant, and then pretreated with forskolin followed with the exposure to PMA. Phosphorylation of HDAC5 in cell lysates was analyzed by immunoblotting with phospho-specific HDAC5 antibodies that recognize the HDAC5 phosphorylated at Ser259 (E) and Ser498 (F). G, H, Cos7 cells were transfected with Flag-HDAC5-WT, Flag-HDAC5-S280A or Flag-HDAC5-S280D, and then pretreated with forskolin, followed with the exposure to PMA. Coimmunoprecipitation of Flag-HDAC5 in cell lysates and then immunoblotting with anti-14-3-3 beta and anti-Flag antibodies in immunoprecipitates were performed. 14-3-3 in total cell lysates (5% of the input) was determined by immunoblotting with anti-14-3-3 antibodies. Representative blots are shown, n=3.
The cells were fixed and GFP-HDAC5 localization was analyzed by fluorescence microscopy.
For analysis of GFP-HDAC5 subcellular localization in NRVMs and Cos7 cells, cells were plated in the presence of adenovirus (multiplicity of infection, 50 to 100) on 35 mm dishes containing DMEM plus 10% FBS as previously described (Vega R B, et al. (2004) Protein kinases C and D mediate agonist-dependent cardiac hypertrophy through nuclear export of histone deacetylase 5. Mol Cell Biol 24(19):8374-8385).
After 24 hour culture, cells were maintained in serum-free DMEM medium for additional 24 hours, and then exposed to various inducers or inhibitors (for 30 minutes) prior to PE or PMA stimulation for indicated times. The cells were washed with PBS and fixed with 3.7% formaldehyde in PBS. Images were captured at a magnification of ×60, using a fluorescence microscope (Olympus BX51) equipped with a digital camera and Spot software system (RT Color Diagnostic Instruments). For analysis of the myocyte marker, sarcomeric α-actinin antibody and DAPI in neonatal cardiomyocyte, immunocytochemistry were performed according to a standard protocol. For subcellular localization of endogenous HDAC5 in cardiomyocyes, we fixed cells and used the detergent Saponin (Sigma, 84510) to make cells permeable, and then performed immunocytochemistry with anti-HDAC5 antibody (Santa Cruz, sc-11419). For subcellular localization of HDAC5, total around 200 cells were counted in each condition. For cardiomyocyte size, total myocyte surface areas were calculated using NIH Image J software, and expressed as the average of 100 randomly selected cells per condition.

SMILES: CCCC(=O)Nc1ncnc2c1ncn2[C@@H]1O[C@@H]2COP(=O)(O)O[C@H]2[C@H]1OC(=O)CCC [cAMP, Dibutyryl-cAMP]
- HDAC5 translocation from nucleus to cytoplasm after PE ([1]; NRVMs with GFP-HDAC5-WT, cAMP 30 min, PE 24 hours): prevented from translocating from the nucleus to the cytoplasm
- PE-induced nuclear export of GFP-HDAC5 S280A ([1]; NRVMs, S280A mutant, cAMP 500 μM or forskolin 10 μM 30 min, PE 3 hours): resistant to PKA inhibition
- PE-stimulated HDAC5 nuclear export ([1]; NRVMs, adenoviral GFP-HDAC5, 30 min pretreatment, PE 10 μM 3 hours): markedly inhibited PE-stimulated HDAC5 nuclear export
- PE-induced endogenous HDAC5 nuclear export ([1]; NRVMs, endogenous HDAC5, cAMP 500 μM 30 min, PE 10 μM 3 hours): same inhibitory effect
- PMA-induced HDAC5 nuclear export ([2]; GFP-HDAC5-WT, pretreatment, then PMA for 3 hours): totally blocked HDAC5 nuclear export
- PMA-induced nuclear export of GFP-HDAC5-S280A ([2]; S280A mutant, cAMP pretreatment, PMA 3 hours): inhibited nuclear export of GFP-HDAC5-WT but not GFP-HDAC5-S280A
